A short description of data set [1]: Determination of in vivo pharmacokinetic parameters (blood and brain concentrations). The note with it: male, rat; for Kp: brain and blood, oral dosing 1 mg/kg, read-out: AUC B/B (brain/blood) ratio; for Kp at 0.5 h: brain and heart blood, intravenous, 0.5 mg/kg, 0.5 h after dose administration, read-out: Brain/Heart Blood conc @0.5 hr. The procedure: Adult male rats (Charles River, Italy) are dosed with test compound orally at 1 mg/kg (5 ml/kg, in 5% v/v DMSO, 0.5% w/v HPMC in water) and intravenously at 0.5 mg/kg (2 ml/kg, in 5% v/v DMSO 40% w/v PEG400 in saline). After oral administration, blood samples are collected under deep Isofluorane anesthesia from the portal vein and heart of each rat (1 rat per time point). After intravenous administration, serial blood samples are collected from the lateral tail vein of each rat. Blood and brain samples are collected at a single timepoint of 0.5 h after dose administration for these animals. In all cases, blood samples are collected into potassium EDTA tubes.
A further group of rats (n=1 per test compound) receive a single intravenous administration of the PgP transport inhibitor, Elacridar (3 mg/kg) shortly before the oral administration of the test compound at 1 mg/kg, as above.
Blood and brain samples can be assayed for test compound concentration using a method based on protein precipitation with acetonitrile followed by HPLC/MS-MS analysis with an optimized analytical method.
The concentrations of test compound in blood (expressed as ng/ml) and brain (expressed as ng/g) at the different time points following either oral or intravenous dosing are analysed using a non-compartmental pharmacokinetic model using WinNonLin Professional version 4.1. The following parameters are derived:
Intravenous dosing: Maximum concentration over time (Cmax), integrated concentration over time (AUC), clearance (Clb), volume of distribution (Vss), half-life (t1/2) and Brain/Heart Blood conc @0.5 hr.
Oral dosing: Cmax, time of maximum concentration (Tmax), AUC, bioavailability (F %), fraction absorbed (Fa %), blood to brain ratio (AUC B/B), and Fold-change in AUC B/B in the presence of Elacridar.

Data set [2] has as its target T1, human Kv3.1 channels (hKv3.1) (Homo sapiens, UniProt P48547).
T1 sequence (P48547 1-501 limits assumed): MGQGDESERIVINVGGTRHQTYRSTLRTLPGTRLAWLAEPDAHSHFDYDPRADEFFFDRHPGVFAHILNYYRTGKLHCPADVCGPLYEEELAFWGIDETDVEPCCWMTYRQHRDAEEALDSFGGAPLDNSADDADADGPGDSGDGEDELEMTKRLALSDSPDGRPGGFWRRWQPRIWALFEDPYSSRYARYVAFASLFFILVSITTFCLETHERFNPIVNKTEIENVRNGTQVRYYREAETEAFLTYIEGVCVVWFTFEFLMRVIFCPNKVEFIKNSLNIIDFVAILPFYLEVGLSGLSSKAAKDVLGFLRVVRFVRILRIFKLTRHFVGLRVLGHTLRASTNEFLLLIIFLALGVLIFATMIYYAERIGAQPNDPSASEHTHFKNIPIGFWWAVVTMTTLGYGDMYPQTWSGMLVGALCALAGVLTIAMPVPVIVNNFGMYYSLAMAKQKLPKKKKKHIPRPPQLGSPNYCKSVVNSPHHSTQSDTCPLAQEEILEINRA
The data set is described as follows: Measurement of Kv3 channel modulation: Kv3.1 assay (IonWorks Quattro whole-cell electrophysiology). The class given is cell-based. The note with it: for Kv3.1 max R %: normalised to maximum effect of reference compound (50 microM); for EC50: rounded to one decimal place, read-out: Kv3.1 pEC50 (converted). The procedure: The ability of the compounds of the invention to modulate the voltage-gated potassium channel subtypes Kv3.4/Kv3.3/Kv3.2/Kv3.1 may be determined using the following assay. Analogous methods may be used to investigate the ability of the compounds of the invention to modulate other channel subtypes.
Human embryonic kidney (HEK)-hKv3.1 cell line is generated by transfecting HEK-293 cells with an expression vector with human Kv3.1 (NM_004976.4). Cells are cultured with MEM supplemented with 10% Heat-Inactivated FBS, 2 mM L-glutamine, 1% Penicillin-Streptomycin, and 0.6 mg/ml of Geneticin (G418). HEK-hKv3.1b cells were amplified in T175 cm2 flask at 37° C. with 5% CO2, using MEM amplification medium, containing the G418 selection antibiotic (0.6 mg/ml). Cells were detached every 3-4 days, using DPBS to wash twice the flask, then TrypLE to dislodge the cells, and re-plated at a density of 2-4×10^6 cells/flask.
The day of the experiment, cells are removed from the incubator and the culture medium removed. Cells are washed with 5 ml of Dulbecco's PBS (DPBS) calcium and magnesium free and detached by the addition of 3 ml Versene (Invitrogen, Italy) followed by a brief incubation at 37° C. for 5 minutes. The flask is tapped to dislodge cells and 10 ml of DPBS containing calcium and magnesium is added to prepare a cell suspension. The cell suspension is then placed into a 15 ml centrifuge tube and centrifuged for 2 min at 1200 rpm. After centrifugation, the supernatant is removed and the cell pellet re-suspended in 4 ml of DPBS containing calcium and magnesium using a 5 ml pipette to break up the pellet. Cell suspension volume is then corrected to give a cell concentration for the assay of approximately 3 million cells per ml.
Experiments are conducted at r.t. using IonWorks Quattro™ planar array electrophysiology technology (Molecular Devices Corp.) with PatchPlate™ PPC. Stimulation protocols and data acquisition are carried out using a microcomputer (Dell Pentium 4). Planar electrode hole resistances (Rp) are determined by applying a 10 mV voltage step across each well. These measurements are performed before cell addition. After cell addition and seal formation, a seal test is performed by applying a voltage step from −80 mV to −70 mV for 160 ms. Following this, amphotericin-B solution is added to the intracellular face of the electrode to achieve intracellular access. Cells are held at −70 mV. Leak subtraction is conducted in all experiments by applying 50 ms hyperpolarizing (10 mV) prepulses to evoke leak currents followed by a 20 ms period at the holding potential before test pulses.
For hKv3.2 and hKv3.1, assays from the holding potential of −70 mV, a first test pulse at −15 mV was applied for 100 ms and after 100 ms at −70 mV a second pulse at +40 mV was applied for 50 ms. Cells were then maintained for 100 ms at −100 mV and another pulse from […] to +40 mV (duration 50 ms) was applied to clamp later the voltage at −40 mV during 200 ms
The intracellular solution contains the following (in mM): K-gluconate 100, KCl 54, MgCl2 3.2, HEPES 5, adjusted to pH 7.3 with KOH. Amphotericin-B solution is prepared as 50 mg/ml stock solution in DMSO and diluted to a final working concentration of 0.1 mg/ml in intracellular solution.
Compounds of use in the invention (or reference compounds such as N-cyclohexyl-N-[(7,8-dimethyl-2-oxo-1,2-dihydro-3-quinolinyl)methyl]-N′-phenylurea) are dissolved in dimethylsulfoxide (DMSO) at a stock concentration of 10 mM. […] Each dilution (1 μL) is transferred to another compound plate and external solution containing 0.05% pluronic acid (66 μL) is added. 3.5 μL from each plate containing a compound of the invention is added and incubated with the cells during the IonWorks Quattro™ experiment. The final assay dilution is 200 and the final compound concentrations are in the range 50 μM to 50 nM.
On the technique in general: Patch clamp records ionic current or voltage across a cell membrane.

The mark [3] stands for this setting: Table 2, Example compounds, some compounds with two data sets (n given in cell).

Data on five compounds can be found in patent US20240327406A1, “POTASSIUM CHANNEL MODULATORS” (Autifony Therapeutics Limited, priority 2021, published 2024).

Molecules are shown by their SMILES. Where two headings read alike, the source gives them in different places.

Consider `O=c1[nH]c2cccnc2n1-c1cnc(Oc2cccc3c2C2(CC2)CO3)cn1` [Example 8, 3-(5-spiro[2H-benzofuran-3,1′-cyclopropane]-4-yloxypyrazin-2-yl)-1H-imidazo[4,5-b]pyridin-2-one], for which, in data set [1], the Kp was below 0.1 and the Kp at 0.5 h is below 0.1. The “Kv3.1 max R %” value in data set [2] (Table 2, Example compounds) is recorded as 204%. The EC50 in data set [2] (setting [3]) is 0.2 µM.

As for `O=c1[nH]c2cccnc2n1-c1cnc(Oc2cccc3c2C2(CC2)CO3)nc1` [Example 13, 3-(2-{2H-spiro[1-benzofuran-3,1′-cyclopropane]oxy}pyrimidin-5-yl)-1H,2H,3H-imidazo[4,5-b]pyridin-2-one], in data set [1], the Kp was determined as 0.12 and the Kp at 0.5 h was determined as 0.13. In addition, the “Kv3.1 max R %” value in data set [2] (Table 2, Example compounds) is on record as 194%. Further, the EC50 in data set [2] (setting [3]) is 0.2 µM.

Turning to `Cc1ncc2[nH]c(=O)n(-c3ccc(Oc4cccc(OC(F)(F)F)c4)nc3)c2n1` [Example 24, 2-methyl-9-[6-[3-(trifluoromethoxy)phenoxy]-3-pyridyl]-7H-purin-8-one], in data set [1], the Kp is 0.29 and the Kp at 0.5 h was 0.33. Moreover, the “Kv3.1 max R %” value in data set [2] (Table 2, Example compounds) was 144%. Besides, the EC50 in data set [2] (setting [3]) was 1 µM.

Turning to `Cc1ncc2[nH]c(=O)n(-c3ccc(Oc4cccc5c4C4(CC4)CO5)nc3)c2n1` [Example 26, 2-methyl-9-(6-spiro[2H-benzofuran-3,1′-cyclopropane]-4-yloxy-3-pyridyl)-7H-purin-8-one], in data set [1], the Kp was below 0.1 and the Kp at 0.5 h is below 0.1. Further, in data set [2] (Table 2, Example compounds), the “Kv3.1 max R %” value amounted to 135%. For the same compound, the EC50 in data set [2] (setting [3]) was 0.0501 µM.

As for `CC1(C)COc2cccc(Oc3ncc(-n4c(=O)[nH]c5cccnc54)cn3)c21` [Example 33, 3-[2-[(3,3-dimethyl-2H-benzofuran-4-yl)oxy]pyrimidin-5-yl]-1H-imidazo[4,5-b]pyridin-2-one], the Kp in data set [1] was found to be 0.65. For the same compound, the Kp at 0.5 h in data set [1] is 0.63. The “Kv3.1 max R %” value in data set [2] (Table 2, Example compounds) is 194%. In addition, the EC50 in data set [2] (setting [3]) is 0.794 µM; in data set [2] (Table 3, Reference Examples and corresponding Examples), 0.631 µM.
